From PMC7948796, “Mammalian-like type II glutaminyl cyclases in Porphyromonas gingivalis and other oral pathogenic bacteria as targets for treatment of periodontitis” (The Journal of Biological Chemistry, 2021)
Where two headings read alike, the source gives them in different places.

Columns and labels:
PiQC [1] = target: T1, PiQC (Prevotella intermedia, UniProt A0AAD1F671); format: biochemical; details: for Effect of chelator on QC activity: PiQC, Fig. S2
Method: (§1) To test whether QC is a metalloenzyme, the turnover of H-Gln-AMC at a concentration corresponding to 0.5 KM was investigated in the presence of the metal chelators 1,10- phenanthroline, dipicolinic acid, and EDTA. The fluorometric activity assay was performed as described above, except for the presence of 1% (v/v) DMSO in the case of 1,10-phenanthroline or dipicolinic acid. Finally, the residual QC activity was determined at steady state, whereas QC without chelators and ± 1% DMSO served as positive control.
(§2) 250 µM H-Gln-AMC and increasing chelator
(§3) concentrations were used to investigate the inhibitory effect on QC activity. Bars indicate residual
(§4) QC activity following initiation of the reaction by adding 5 nM QC (red: PgQC; green: PiQC; blue:
(§5) TfQC). All measurements were performed at 30°C as described in the text.
(§6) (1 picture or pasted object on this page, not shown here)

TfQC [2] = target: T2, TfQC (Tannerella forsythia, UniProt G8UMP8); format: biochemical; details: Fig. S2
T2 sequence (G8UMP8 entry or part of it): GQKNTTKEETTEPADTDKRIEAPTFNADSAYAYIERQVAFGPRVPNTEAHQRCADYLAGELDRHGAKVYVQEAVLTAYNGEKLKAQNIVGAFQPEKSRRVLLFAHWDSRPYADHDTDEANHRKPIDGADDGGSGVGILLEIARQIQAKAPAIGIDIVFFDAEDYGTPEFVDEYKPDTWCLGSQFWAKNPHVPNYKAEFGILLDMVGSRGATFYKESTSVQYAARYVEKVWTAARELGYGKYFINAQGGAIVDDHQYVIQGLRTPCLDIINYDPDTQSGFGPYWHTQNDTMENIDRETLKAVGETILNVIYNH
Method: as §1, §2, §3, §4, §5, §6

PgQC [3] = target: T3, PgQC (Porphyromonas gingivalis, UniProt Q7MT37); experiment: Residual QC activity in presence of metal chelators; format: biochemical; set-up: His-tag (pET28a, thrombin-cleavable) (N, cleaved yes); made in house; host or cells: E. coli Rosetta(DE3)pLysS; details: Fig. S2
Method: as §1
Supplementary Figure 2: Inhibition of bacteroidal QC activity by metal chelators: ( A) ED TA ,
(B) dipicolinic acid and (C) 1,10-phenantroline. 250 µM H-Gln-AMC and increasing chelator
as §3, §4, §5, §6

PiQC [4] = target: T1, PiQC; experiment: QC inhibition assay with fluorogenic substrate H-Gln-AMC (Ki); format: biochemical; details: 1% DMSO, pH 8.0, 30 °C
Method: (§7) Inhibitory constants were determined using concentrations of H-Gln-AMC varying from 1/4 KM to 2 KM and a final concentration of bacterial QC in a range between 25 nM and 50 nM. Progress curves were fitted to the general equation for competitive inhibition.

TfQC [5] = target: T2, TfQC; experiment: as above; format: biochemical; details: 1% DMSO, pH 8.0, 30 °C
Method: as §7

HsQC [6] = target: T4, HsQC (Homo sapiens, UniProt Q16769); experiment: as above; format: biochemical
T4 sequence (Q16769 29-361): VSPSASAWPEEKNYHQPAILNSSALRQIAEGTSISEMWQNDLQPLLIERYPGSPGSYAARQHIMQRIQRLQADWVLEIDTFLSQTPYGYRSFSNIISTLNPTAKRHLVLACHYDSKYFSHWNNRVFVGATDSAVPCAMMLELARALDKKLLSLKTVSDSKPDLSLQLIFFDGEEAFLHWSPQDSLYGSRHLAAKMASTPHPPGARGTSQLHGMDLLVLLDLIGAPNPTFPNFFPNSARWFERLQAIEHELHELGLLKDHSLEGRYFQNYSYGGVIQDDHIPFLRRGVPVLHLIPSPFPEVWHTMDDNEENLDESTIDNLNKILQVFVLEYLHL

PgQC [7] = target: T3, PgQC; experiment: as above; format: biochemical; set-up: His-tag (pET28a, thrombin-cleavable) (N, cleaved yes); made in house; host or cells: E. coli Rosetta(DE3)pLysS
Method: as §7

HsQC [8] = target: T4, HsQC; set-up: method as in Schilling et al. ([44]); details: ref Schilling et al. ([44]); cited from earlier work
PgQC [9] = target: T3, PgQC
Method: (§8) QC activity was evaluated using the fluorogenic substrate H-Gln-AMC as described previously ([43]). Measurements were performed at different concentrations of fluorogenic substrate and 0.5 U pyroglutaminyl aminopeptidase in 50 mM Tris-HCl, 50 mM NaCl at pH 8.0. After 10 min incubation time at 30 °C, the reaction was initiated by addition of approximately 50 nM QC to a final volume of 125 μl reaction mixture. QC activity was calculated from a standard curve of the fluorophore AMC at assay conditions using excitation/emission wavelengths of 380/460 nm. All measurements were carried out in 96-well microtiter plates (Fisher Scientific) at 30 °C using the FluoStar Optima (BMG Labtech). All kinetic data were evaluated using GraFit software (Version 7, Erithacus software Ltd).
(§9) Supplementary Figure 1: QC activity measurements for bacteroidal QC cataly zed cyclization of the fluorogenic substrate H-Gln-AMC. (A) v/S-characteristics and Lineweaver-Burk plots for PgQC (red circles), TfQC (green triangles) and PiQC (blue squares). QC activity measurements were performed in 50 mM Tris-HCl, pH 8.0 and 50 mM NaCl at 30°C. Kinetic data were evaluated using GraFit software (Version 7, Erithacus software Ltd., Horley, UK). (B) pH dependence of PgQC, TfQC, and PiQC activities; colors and sy mbols as in (A). The specificity constants kcat/KM were determined under first-order rate law conditions with substrate concentrations of 1/10 KM.
(§10) Measurements were carried out at 30°C in buffer consisting of 0.1 M Tris-HCl, 0.05 MES, 0.05 mM acetic acid and 0.05 mM NaCl.. […]

TfQC [10] = target: T2, TfQC; experiment: Kinetics of cyclization of H-Gln-AMC; format: biochemical
Method: as §8, §9, §10

PiQC [11] = target: T1, PiQC; format: biochemical
Method: as §8, §9, §10

[12] = substrate: CC(C)[C@H](NC(=O)[C@H](CCC(N)=O)NC(=O)[C@@H](N)CCC(N)=O)C(=O)N[C@@H](C)C(=O)N[C@@H](C)C(=O)N[C@@H](C)C(=O)N[C@@H](CC(=O)O)C(=O)N1CCC[C@H]1C(=O)N[C@@H](CO)C(=O)N1CCC[C@H]1C(N)=O; experiment: Conversion of N-termini of putative natural substrates, spectrophotometric assay with glutamate dehydrogenase; format: biochemical, Porphyromonas gingivalis; details: other: PgQC; determined under first-order-rate law conditions, [S] << KM; pH 8.0; 30.0 °C
Method: (§11) For evaluation of possible physiological substrates, PgQC activity was determined spectrophotometrically by using glutamate dehydrogenase as auxiliary enzyme described previously ([44]). […] After 10-min incubation time at 30 °C, reactions were initiated by addition of approximately 115 nM PgQC to a final volume of 250 μl reaction mixture. QC turnover of substrates was monitored by a decrease of absorption at 340 nm and enzyme activity was determined from a standard curve of NH4Cl at assay conditions.

[13] = substrate: CC[C@H](C)[C@H](NC(=O)[C@H](CO)NC(=O)[C@H](CC(=O)O)NC(=O)[C@@H]1CCCN1C(=O)[C@@H](NC(=O)[C@@H](NC(=O)[C@H](CO)NC(=O)[C@@H](N)CCC(N)=O)C(C)C)C(C)C)C(=O)NCC(=O)N[C@@H](CCCNC(=N)N)C(N)=O; experiment: as above; format: biochemical, Porphyromonas gingivalis; details: other: PgQC, pH 8.0, 30 °C
Method: as §11

[14] = substrate: CC(C)[C@H](NC(=O)[C@H](CO)NC(=O)[C@H](C)NC(=O)[C@H](CC(N)=O)NC(=O)[C@H](CO)NC(=O)[C@H](CCC(=O)O)NC(=O)[C@@H](N)CCC(N)=O)C(=O)N[C@@H](CCCNC(=N)N)C(=O)N1CCC[C@H]1C(=O)N[C@@H](CO)C(N)=O; experiment: as above; format: biochemical, Porphyromonas gingivalis; details: other: PgQC; determined under first-order-rate law conditions, [S] << KM; pH 8.0; 30.0 °C
Method: as §11

[15] = substrate: CC[C@H](C)[C@H](NC(=O)[C@@H](NC(=O)[C@H](CC(=O)O)NC(=O)[C@@H](N)CCC(N)=O)C(C)C)C(=O)N[C@@H](CCCNC(=N)N)C(=O)N1CCC[C@H]1C(=O)N[C@@H](Cc1c[nH]c2ccccc12)C(=O)N[C@@H](CO)C(=O)N[C@@H](CC(C)C)C(=O)N[C@@H](CCC(N)=O)C(N)=O; experiment: as above; format: biochemical, Porphyromonas gingivalis; details: other: PgQC; determined under first-order-rate law conditions, [S] << KM; pH 8.0; 30.0 °C
Method: as §11

[16] = substrate: C[C@H](NC(=O)[C@H](CCC(=O)O)NC(=O)[C@H](Cc1ccc(O)cc1)NC(=O)[C@@H](NC(=O)[C@H](CCCNC(=N)N)NC(=O)[C@H](CC(N)=O)NC(=O)[C@H](CCCNC(=N)N)NC(=O)[C@H](CO)NC(=O)[C@@H](N)CCC(N)=O)[C@@H](C)O)C(=O)N[C@@H](Cc1ccc(O)cc1)C(N)=O; experiment: as above; format: biochemical, Porphyromonas gingivalis; details: other: PgQC, pH 8.0, 30 °C
Method: as §11

[17] = H-Gln-AMC substrate, 1% DMSO, pH 8.0, 30 °C, read-out: Inhibition of QC (Ki) PgQC

T1 sequence (A0AAD1F671 24-340 limits assumed): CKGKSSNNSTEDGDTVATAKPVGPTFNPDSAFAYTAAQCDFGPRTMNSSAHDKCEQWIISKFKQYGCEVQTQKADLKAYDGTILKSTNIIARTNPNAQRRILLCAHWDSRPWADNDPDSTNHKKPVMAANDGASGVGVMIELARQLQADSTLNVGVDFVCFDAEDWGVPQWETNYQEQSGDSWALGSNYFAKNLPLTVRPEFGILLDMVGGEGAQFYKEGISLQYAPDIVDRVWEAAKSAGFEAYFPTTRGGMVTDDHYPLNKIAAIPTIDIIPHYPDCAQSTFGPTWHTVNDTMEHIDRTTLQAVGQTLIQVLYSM

Molecule: c1cnc2c(c1)ccc1cccnc12 [1,10-phenanthroline]
- Sensitivity of PiQC to chelator (PiQC [1]; PiQC compared with other bacteroidal QCs): particularly sensitive
- Effect of chelator on QC activity (PiQC [1]): strong inhibitory activity
- Effect of chelator on QC activity (TfQC [2]): strong inhibitory activity
- Effect of chelator on QC activity (PgQC [3]): strong inhibitory activity

Molecule: c1ccc(Cn2ccnc2)cc1 [1-Benzylimidazol, 1-benzylimidazole]
- Ki (PiQC [4]): 13.5 ± 2.2 µM
- Ki (TfQC [5]): 6.45 ± 0.33 µM
- Ki (HsQC [6]): 16.8 ± 3.5 µM
- Mode of inhibition of PgQC (PgQC [7]; Fig. S3): competitive manner
- Ki (PgQC [7]; [17]): 10.4 ± 0.3 µM
- Ki (PgQC [7]; stated in text for the bacteroidal QCs in general, read-out: Estimated Ki, highest efficacy): ~10 µM

Molecule: c1ccc2[nH]cnc2c1 [Benzimidazole, benzimidazole]
- Ki (PiQC [4]): 85.5 ± 4.7 µM
- Ki (TfQC [5]): 170 ± 1 µM
- Ki (HsQC [6]): 318 ± 23 µM
- Ki (PgQC [7]; [17]): 32.1 ± 1.4 µM

Molecule: O=C(O)CN(CCN(CC(=O)O)CC(=O)O)CC(=O)O [EDTA]
- Effect of chelator on QC activity (PiQC [1]): little influence
- Effect of chelator on QC activity (TfQC [2]): little influence
- Effect of chelator on QC activity (PgQC [3]): little influence

Molecule: Cc1cc(=O)oc2cc(NC(=O)[C@@H](N)CCC(N)=O)ccc12 [H-Gln-AMC]
- Km (HsQC [8]): 54 ± 2 µM
- kcat (HsQC [8]): 5.3 ± 0.1 s⁻¹
- specificity constant kcat/KM relative to that of HsQC (PgQC [9]): ~9%
- Km (PgQC [9]; pH 8.0, 30 °C): 510 ± 13 µM
- kcat (PgQC [9]; pH 8.0, 30 °C): 4.71 ± 0.22 s⁻¹
- KM value higher compared with HsQC (TfQC [10]): ~20 fold
- specificity constant kcat/KM relative to that of HsQC (TfQC [10]): approximately 4%
- Km (TfQC [10]; pH 8.0, 30 °C): 1090 ± 30 µM
- kcat (TfQC [10]; pH 8.0, 30 °C): 4.49 ± 0.22 s⁻¹
- specificity constant kcat/KM relative to that of HsQC (PiQC [11]): ~13%
- Km (PiQC [11]; pH 8.0, 30 °C): 645 ± 7 µM
- kcat (PiQC [11]; pH 8.0, 30 °C): 8.51 ± 0.37 s⁻¹

Molecule: c1c[nH]cn1 [Imidazole, imidazole]
- Ki (PiQC [4]): 288 ± 11 µM
- Ki (TfQC [5]): 280 ± 15 µM
- Ki (PgQC [7]; [17]): 349 ± 23 µM

Molecule: O=C(O)c1cccc(C(=O)O)n1 [dipicolinic acid]
- Effect of chelator on QC activity (PiQC [1]): strong inhibitory activity
- Effect of chelator on QC activity (TfQC [2]): strong inhibitory activity
- Effect of chelator on QC activity (PgQC [3]): strong inhibitory activity

B1: PgQC (Porphyromonas gingivalis W83) (protein)
chain: NGNNTSETQGDRTEQAETVQADLFSADSAYTFVQRQVNFGPRIPGTAPHRACGDWLVATLRSFGAAVQEQTAEIKAHDGTMLPMRNIIASYRPEATGRMLLMAHWDTRPVCDQDANPAMHTETFDGADDGGSGVGVLLEIARYLGQQKDLGMGIDIVFFDTEDYGSYGDDESWCLGSQYWSRNPHVAGYKAEAGILLDMVGAKGATFYWEYFSKSYAPGLISAVWQTAAALGYGNYFIQADGGALTDDHVPVIKNLGIPCIDIINYSSKNEHGFGDHWHTQRDNMQIIDKNVLDAVGETVIRYLDEQVKAASH
- kcat/Km [12]: 12500 ± 1900 M⁻¹ s⁻¹
- Km [13]: 492.5 ± 26 µM
- kcat [13]: 7 ± 0.66 s⁻¹
- kcat/Km [13]: 14300 ± 600 M⁻¹ s⁻¹
- kcat/Km [14]: 4300 ± 100 M⁻¹ s⁻¹
- kcat/Km [15]: 18600 ± 100 M⁻¹ s⁻¹
- Km [16]: 203.7 ± 5.1 µM
- kcat [16]: 13.3 ± 1.6 s⁻¹
- kcat/Km [16]: 65100 ± 6000 M⁻¹ s⁻¹
